{"source": "paper PMC8838532", "about": "(Molecules, 2022)", "key": {"A549 cells [1]": {"tested_on": "A549 cells", "assay": "Resazurin cytotoxicity assay in A549 cells", "assay_type": "cell-based, human", "conditions": "for fold more potent than imatinib / IC50: A549 cells; for fold more potent than imatinib: IC50 versus imatinib; for IC50: Homo sapiens, 48 h, resazurin, concentration-response curve; for SI WSS-1/A549: SI = IC50 (WSS-1)/IC50 (A549)", "experimental": "(§1) The A549 cell line (CCL-185™; ATCC, Manassas, VA, USA), from human lung carcinoma epithelium, and the K562 cell line (Rio de Janeiro Cell Bank, BCRJ: 0126, Rio de Janeiro, RJ, Brazil), a human chronic myeloid cell line expressing the BCR-ABL1 protein, were grown in RPMI-1640 culture medium (Merck, Darmstadt, Hesse, Germany) supplemented with 10% heat-inactivated fetal bovine serum (FBS; Vitrocell, Campinas, SP, Brazil). WSS-1 [WS-1] (ATCC CRL-2029™) human […] cells were grown in high-glucose DMEM (Vitrocell) supplemented with 10% FBS (Vitrocell). All cell lines were maintained at 37 °C under 5% CO2, in a water jacket CO2 incubator (Forma Series II incubator, Thermo Fisher Scientific, Waltham, MA, USA).\n(§2) Briefly, cells were seeded in 96-well microplates (2 × 10^4 cells/well for K562 cells and 5 × 10^4 cells/well for A549 and WSS-1 cells) and incubated with 10 µM of the test compounds for 48 h at 37 °C. A resazurin (Merck, Darmstadt, Hesse, Germany) solution (final concentration: 0.01 mg/mL) was added to each well before the end of the experiment, at 1 h before concluding for K562 cells, and 2 h before concluding for A549 and WSS-1 cells. Fluorescence readings (λex = 560 nm, […]) were carried out immediately after the addition of resazurin (t0) and at the end of the experiment (tn) with a FlexStation 3 Benchtop multimode microplate reader (Molecular Devices, San Jose, CA, USA). Resorufin fluorescence was calculated by subtracting the fluorescence measured at t0 from that at tn. Cell viability was expressed as percentages, considering the mean resorufin fluorescence of the control wells (cells incubated with only DMSO) to be 100%. Tests were performed in triplicate. The same assay was carried out to generate 8–10 points concentration-response curves (300 µM top compound concentration).\n(§3) IC50 values were calculated by a four-parameter logistic curve function, using GraphPad Prism version 6.01 for Windows (GraphPad Software, San Diego, CA, USA, www.graphpad.com) (accessed on 29 December 2021)."}, "WSS-1 cells": {"tested_on": "WSS-1 cells", "assay": "Resazurin cytotoxicity assay in WSS-1 cells", "assay_type": "cell-based", "conditions": "WSS-1 healthy human cells, 48 h", "experimental": "as §1, §2, §3"}, "K562 cells [2]": {"tested_on": "K562 cells", "assay": "Resazurin cytotoxicity assay in K562 cells", "conditions": "for viability at 10 µM: read-out: percentage of viability"}, "A549 cells [3]": {"tested_on": "A549 cells", "conditions": "150 μM, cited from earlier work; for % viability reduction A549 cells: Figure 1"}, "K562 cells [4]": {"tested_on": "K562 cells", "conditions": "150 μM, Figure 1; cited from earlier work"}, "K562 cells [5]": {"tested_on": "K562 cells", "parameters": "method as in PMID 30055465", "conditions": "cited from earlier work"}, "K562 cells [6]": {"tested_on": "K562 cells", "conditions": "Figure 1; cited from earlier work"}}, "note": "Read-outs that look alike come from different tables or passages of the source.", "data": [{"smiles": "Cc1ccc2c(c1)C(=O)C(=O)N2Cc1cn(-c2ccc(C)c(Nc3nccc(-c4cccnc4)n3)c2)nn1", "note": "[2b, 5-methyl-1-((1-(4-methyl-3-((4-(pyridin-3-yl)pyrimidin-2-yl)amino)phenyl)-1H-1,2,3-triazol-4 yl)methyl)indoline-2,3-dione]", "values": [{"measurement": "melting point", "result": "235 to 237", "unit": "°C"}]}, {"smiles": "Cc1ccc(-n2cc(CN3C(=O)C(=O)c4cc(Cl)ccc43)nn2)cc1Nc1nccc(-c2cccnc2)n1", "note": "[2c, 5-chloro-1-((1-(4-methyl-3-((4-(pyridin-3-yl)pyrimidin-2-yl)amino)phenyl)-1H-1,2,3-triazol-4 yl)methyl)indoline-2,3-dione]", "values": [{"measurement": "melting point", "result": "257 to 260", "unit": "°C"}]}, {"smiles": "Cc1ccc(-n2cc(CN3C(=O)C(=O)c4cc(Br)ccc43)nn2)cc1Nc1nccc(-c2cccnc2)n1", "note": "[2d, 5-bromo-1-((1-(4-methyl-3-((4-(pyridin-3-yl)pyrimidin-2-yl)amino)phenyl)-1H-1,2,3-triazol-4 yl)methyl)indoline-2,3-dione]", "values": [{"measurement": "melting point", "result": "267 to 270", "unit": "°C"}]}, {"smiles": "Cc1ccc(-n2cc(CN3C(=O)C(=O)c4cc(F)ccc43)nn2)cc1Nc1nccc(-c2cccnc2)n1", "note": "[2e, 5-fluoro-1-((1-(4-methyl-3-((4-(pyridin-3-yl)pyrimidin-2-yl)amino)phenyl)-1H-1,2,3-triazol-4 yl)methyl)indoline-2,3-dione]", "values": [{"measurement": "melting point", "result": "251 to 253", "unit": "°C"}]}, {"smiles": "Cc1ccc(-n2cc(CN3C(=O)C(F)(F)c4cc(Cl)ccc43)nn2)cc1Nc1nccc(-c2cccnc2)n1", "note": "[3c, 5-chloro-3,3-difluoro-1-((1-(4-methyl-3-((4-(pyridin-3-yl)pyrimidin-2-yl)amino)phenyl)-1H-1,2,3-triazol-4-yl)methyl)indoline-2-one]", "values": [{"measurement": "fold more potent than imatinib", "setting": "A549 cells [1]", "result": "approximately 10 fold"}, {"measurement": "IC50", "setting": "A549 cells [1]", "result": 6.4, "unit": "µM"}, {"measurement": "SI WSS-1/A549", "setting": "A549 cells [1]", "result": 2.1}, {"measurement": "melting point", "result": "223 to 224", "unit": "°C"}, {"measurement": "IC50", "setting": "WSS-1 cells", "result": 13.5, "unit": "µM"}]}, {"smiles": "Cc1ccc(-n2cc(CN3C(=O)C(F)(F)c4cc(Br)ccc43)nn2)cc1Nc1nccc(-c2cccnc2)n1", "note": "[3d, 5-bromo-3.3-difluoro-1-((1-(4-methyl-3-((4-(pyridin-3-yl)pyrimidin-2-yl)amino)phenyl)-1H-1,2,3-triazol-4-yl)methyl)indoline-2-one]", "values": [{"measurement": "fold more potent than imatinib", "setting": "A549 cells [1]", "result": "approximately 10 fold"}, {"measurement": "IC50", "setting": "A549 cells [1]", "result": 7.3, "unit": "µM"}, {"measurement": "SI WSS-1/A549", "setting": "A549 cells [1]", "result": 2.5}, {"measurement": "melting point", "result": "218 to 219", "unit": "°C"}, {"measurement": "IC50", "setting": "WSS-1 cells", "result": 18.6, "unit": "µM"}]}, {"smiles": "Cc1ccc(NC(=O)c2ccc(CN3CCN(C)CC3)cc2)cc1Nc1nccc(-c2cccnc2)n1", "note": "[Imatinib, imatinib]", "values": [{"measurement": "viability at 10 µM", "setting": "K562 cells [2]; Homo sapiens, K562, 48 h", "result": 30.7, "unit": "%"}, {"measurement": "% viability reduction A549 cells", "setting": "A549 cells [3]", "result": 61.2, "unit": "%"}, {"measurement": "% viability reduction K562 cells", "setting": "K562 cells [4]", "result": 61.7, "unit": "%"}]}, {"smiles": "Cc1ccc(-n2cc(CN3C(=O)C(=O)c4ccccc43)nn2)cc1Nc1nccc(-c2cccnc2)n1", "note": "[compound 2a, 1-((1-(4-methyl-3-((4-(pyridin-3-yl)pyrimidin-2-yl)amino)phenyl)-1H-1,2,3-triazol-4-yl)methyl)indoline-2,3-dione]", "values": [{"measurement": "melting point", "result": "237 to 239", "unit": "°C"}]}, {"smiles": "Cc1ccc(-n2cc(CN3C(=O)C(F)(F)c4ccccc43)nn2)cc1Nc1nccc(-c2cccnc2)n1", "note": "[compound 3a, 3.3-difluoro-1-((1-(4-methyl-3-((4-(pyridin-3-yl)pyrimidin-2-yl)amino)phenyl)-1H-1,2,3-triazole-4-yl)methyl)indoline-2-one]", "values": [{"measurement": "fold more potent than imatinib", "setting": "A549 cells [1]", "result": "approximately 10 fold"}, {"measurement": "IC50", "setting": "A549 cells [1]", "result": 7.2, "unit": "µM"}, {"measurement": "SI WSS-1/A549", "setting": "A549 cells [1]", "result": 1.6}, {"measurement": "melting point", "result": 222, "unit": "°C"}, {"measurement": "IC50", "setting": "WSS-1 cells", "result": 11.6, "unit": "µM"}]}, {"smiles": "Cc1ccc2c(c1)C(F)(F)C(=O)N2Cc1cn(-c2ccc(C)c(Nc3nccc(-c4cccnc4)n3)c2)nn1", "note": "[compound 3b, 3,3-difluoro-5-methyl-1-((1-(4-methyl-3-((4-(pyridin-3-yl)pyrimidin-2-yl)amino)phenyl)-1H-1,2,3-triazol-4-yl)methyl)indolin-2-one]", "values": [{"measurement": "IC50", "setting": "K562 cells [2]; Homo sapiens, K562, 48 h, read-out: IC50 K562", "result": 35.8, "unit": "µM"}, {"measurement": "viability at 10 µM", "setting": "K562 cells [2]; Homo sapiens, K562, 48 h", "result": 57.5, "unit": "%"}, {"measurement": "SI WSS-1/K562", "setting": "K562 cells [2]; SI = IC50 (WSS-1)/IC50 (K562)", "result": 1.9}, {"measurement": "melting point", "result": "102 to 104", "unit": "°C"}, {"measurement": "IC50", "setting": "WSS-1 cells", "result": 69.3, "unit": "µM"}]}, {"smiles": "COc1ccc(CN2C(=O)C(=O)c3cc(-c4ccc(OC)cc4)ccc32)cc1", "note": "[compound 4]", "values": [{"measurement": "IC50", "setting": "K562 cells [5]", "result": 0.03, "unit": "µM"}]}, {"smiles": "Cc1ccc(-c2cn(-c3ccc(CN4CCN(C)CC4)c(C(F)(F)F)c3)nn2)cc1Nc1nccc(-c2cccnc2)n1", "note": "[compound 7]", "values": [{"measurement": "IC50", "setting": "K562 cells [6]", "result": 0.03, "unit": "µM"}]}, {"smiles": "CC(=O)NCC(=O)Nc1ccc(C)c(Nc2nccc(-c3cccnc3)n2)c1", "note": "[compound 8]", "values": [{"measurement": "% viability reduction A549 cells", "setting": "A549 cells [3]", "result": 61.5, "unit": "%"}, {"measurement": "cell viability", "setting": "A549 cells [3]", "result": 38.5, "unit": "%"}, {"measurement": "% viability reduction K562 cells", "setting": "K562 cells [4]", "result": 66.3, "unit": "%"}]}, {"smiles": "CCc1c2c(nc3ccc(OC(=O)N4CCC(N5CCCCC5)CC4)cc13)-c1cc3c(c(=O)n1C2)COC(=O)[C@]3(O)CC", "note": "[irinotecan]", "values": [{"measurement": "IC50", "setting": "K562 cells [5]", "result": 0.07, "unit": "µM"}]}]}
